For this experiment, the system named is captive white-tailed deer (Odocoileus virginianus). The experiment in a line: BAM-1 / BAM-2 in captive white-tailed deer with NTA antagonist reversal (Example 4). The experiment is classed as in vivo. The conditions noted are these: adult male not recovered after BAM-2 and NTA-1. How it is done:
BAM was administered to captive white-tailed deer (Odocoileus virginianus) at two dose levels (BAM-1 and BAM-2) in an approved-protocol study, to evaluate efficacy, quality of anesthesia, and quality of recovery following administration of tolazoline, atipamezole, and naltrexone antagonists.
The deer of the study were housed in large (0.4-0.8 ha) forested outdoor pens and were fed 17% protein ration with fresh hay and water available ad libitum. The average ambient temperature at time of immobilization and anesthesia was 14.4° C. Temperatures ranged from −1.7 to 25.6° C. […]
Immediately after BAM injection, each deer was released into a 15×20 m observation pen where the time to first noticeable drug effect (e.g., stumbling, gait changes) was recorded, the sternal time (when deer collapsed without rising again) was recorded, the lateral time (when deer lowered head and became immobile) was recorded, and the approachable time (when deer remained immobile and seemed oblivious to its surroundings) was recorded. […]
The heart rate (determined by auscultation), respiration rate (determined by thoracic movements), rectal temperature, and hemoglobin saturation level were recorded at 0, 10, and 20 minutes after recumbency. […] Heart rate readings from pulse oximetry were compared to heart rates as determined by auscultation. […]

In the case of `c1ccc(CC2=NCCN2)cc1` [tolazoline], the “effect of subsequent IM injection of 250 mg tolazoline” value is recorded as “led to recovery from anesthesia, with minimal ataxia”.

Values taken from patent US7795263B2, “Pharmaceutical combination for and method of anesthetizing and immobilizing non-domesticated mammals” (Wildlife Laboratories, Inc., priority 2008, dated 2010).
